Data reported in ChEMBL document CHEMBL1201862, “PubChem BioAssay data set” (2004).
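1) Cells in 96-well plates. 2) Compound, 48 h, 5 concentrations. 3) Linear interpolation between surrounding doses. 4) Unreached endpoint = highest concentration. At the GI50, growth is halved.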 Activity calls are given as the source filed them. No stated cut-off is given here; in the data, active = GI50 up to about 1.1 µM and inactive = higher.

Assays:
Assay in all cases: NCI anticancer screen, dose series, 48 h
[1] = tested on: BT-549
[2] = tested on: CAKI-1
[3] = tested on: TK-10
[4] = tested on: MDA-N
[5] = tested on: SNB-19
[6] = tested on: NCI-H522
[7] = tested on: HT-29
[8] = tested on: HL-60
[9] = tested on: MDA-MB-435
[10] = tested on: HCT-116
[11] = tested on: HCT-15
[12] = tested on: NCI/ADR-RES
[13] = tested on: KM12
[14] = tested on: Hs-578T
[15] = tested on: NCI-H460
[16] = tested on: OVCAR-3
[17] = tested on: A549
[18] = tested on: SK-OV-3
[19] = tested on: M14

In the case of O=C(O)CSc1ccc([N+](=O)[O-])cc1[N+](=O)[O-], the GI50 [1] is reported as > 100 µM (inactive), the GI50 [2] is reported as > 100 µM (inactive) and the GI50 [3] is reported as > 100 µM (inactive). For the same molecule, the GI50 [4] was > 100 µM (inactive), the GI50 [5] was > 100 µM (inactive) and the GI50 [6] was > 100 µM (inactive). The GI50 [7] was > 100 µM (inactive), the GI50 [8] was > 100 µM (inactive) and the GI50 [9] was > 100 µM (inactive). The GI50 [10] was > 100 µM (inactive), the GI50 [11] was > 100 µM and the GI50 [12] was > 100 µM (inactive). For the same molecule, the GI50 [13] was > 100 µM (inactive), the GI50 [14] was > 100 µM (inactive) and the GI50 [15] was > 100 µM (inactive). The GI50 [16] was > 100 µM (inactive), the GI50 [17] was > 100 µM (inactive) and the GI50 [18] was > 100 µM (inactive). For the same molecule, the GI50 [19] was > 100 µM (inactive).
With Cc1cccc(CNc2[nH]cnc3nncc2-3)c1 the GI50 [1] was > 100 µM (inactive), the GI50 [2] was 80.7 µM (inactive) and the GI50 [3] was > 100 µM (inactive). The GI50 [4] was > 100 µM (inactive), the GI50 [5] was > 100 µM (inactive) and the GI50 [6] was 56.5 µM (inactive). The GI50 [7] was > 100 µM (inactive), the GI50 [8] was > 100 µM (inactive) and the GI50 [9] was > 100 µM (inactive). For the same molecule, the GI50 [10] was > 100 µM (inactive), the GI50 [11] was > 100 µM and the GI50 [12] was 90.2 µM (inactive). The GI50 [13] was > 100 µM (inactive), the GI50 [14] was > 100 µM (inactive) and the GI50 [15] was > 100 µM (inactive). The GI50 [16] was > 100 µM (inactive), the GI50 [17] was > 100 µM (inactive) and the GI50 [18] was > 100 µM (inactive). The GI50 [19] was > 100 µM (inactive).
With Cn1c(=O)c2nc(COCc3nc4c(=O)n(C)c(=O)n(C)c4[nH]3)[nH]c2n(C)c1=O the GI50 [1] was > 100 µM (inactive), the GI50 [2] was > 100 µM (inactive) and the GI50 [3] was > 100 µM (inactive). The GI50 [4] was > 100 µM (inactive), the GI50 [5] was > 100 µM (inactive) and the GI50 [6] was > 100 µM (inactive). For the same molecule, the GI50 [7] was > 100 µM (inactive), the GI50 [8] was > 100 µM (inactive) and the GI50 [9] was > 100 µM (inactive). For the same molecule, the GI50 [10] was > 100 µM (inactive), the GI50 [11] was > 100 µM and the GI50 [12] was > 100 µM (inactive). For the same molecule, the GI50 [13] was > 100 µM (inactive), the GI50 [14] was > 100 µM (inactive) and the GI50 [15] was > 100 µM (inactive). For the same molecule, the GI50 [16] was > 100 µM (inactive), the GI50 [17] was > 100 µM (inactive) and the GI50 [18] was > 100 µM (inactive). For the same molecule, the GI50 [19] was > 100 µM (inactive).
With O=c1c2cc(I)ccc2nc(S)n1Cc1ccccc1 the GI50 [1] was 19.2 µM (inactive), the GI50 [2] was 1.92 µM (inactive) and the GI50 [3] was 16.8 µM (inactive). The GI50 [4] was 9.2 µM (inactive), the GI50 [5] was 18.9 µM (inactive) and the GI50 [6] was 3.96 µM (inactive). For the same molecule, the GI50 [7] was 32.9 µM (inactive), the GI50 [8] was 6.84 µM (inactive) and the GI50 [9] was 83.6 µM (inactive). The GI50 [10] was 9.14 µM (inactive), the GI50 [11] was 32.1 µM and the GI50 [12] was 18.5 µM (inactive). The GI50 [13] was 9.08 µM (inactive), the GI50 [14] was 16 µM (inactive) and the GI50 [15] was 6.93 µM (inactive). The GI50 [16] was 6.65 µM (inactive), the GI50 [17] was 15.9 µM (inactive) and the GI50 [18] was 27.5 µM (inactive). The GI50 [19] was 9.25 µM (inactive).
For O=c1c2c3c(sc2nc2n1NC=NN2)CCCC3, the GI50 [1] was 17.5 µM (inactive), the GI50 [2] was 18 µM (inactive) and the GI50 [3] was 24 µM (inactive). The GI50 [4] was 16 µM (inactive), the GI50 [5] was 42.7 µM (inactive) and the GI50 [6] was 16.3 µM (inactive). The GI50 [7] was 17.5 µM (inactive), the GI50 [8] was 1.2 µM (inactive) and the GI50 [9] was 12.8 µM (inactive). The GI50 [10] was 17.9 µM (inactive), the GI50 [11] was 17.4 µM and the GI50 [12] was 26.7 µM (inactive). For the same molecule, the GI50 [13] was 18.1 µM (inactive), the GI50 [14] was 21.8 µM (inactive) and the GI50 [15] was 20.2 µM (inactive). The GI50 [16] was 1.28 µM (inactive), the GI50 [17] was > 83.4 µM (inactive) and the GI50 [18] was 42.8 µM (inactive). For the same molecule, the GI50 [19] was 25.8 µM (inactive).
In the case of CSc1nc(Br)nc2ncn(C3CC(Oc4ccc(C)cc4)C(COc4ccc(C)cc4)O3)c12 (stereo not drawn), the GI50 [1] is reported as > 100 µM (inactive), the GI50 [2] is reported as 66.2 µM (inactive) and the GI50 [3] is reported as > 100 µM (inactive). For the same molecule, the GI50 [4] was > 100 µM (inactive), the GI50 [5] was > 100 µM (inactive) and the GI50 [6] was > 100 µM (inactive). The GI50 [7] was > 100 µM (inactive), the GI50 [8] was > 100 µM (inactive) and the GI50 [9] was > 100 µM (inactive). The GI50 [10] was > 100 µM (inactive), the GI50 [11] was > 100 µM and the GI50 [12] was > 100 µM (inactive). For the same molecule, the GI50 [13] was > 100 µM (inactive), the GI50 [14] was 25.1 µM (inactive) and the GI50 [15] was > 100 µM (inactive). The GI50 [16] was > 100 µM (inactive), the GI50 [17] was > 100 µM (inactive) and the GI50 [18] was > 100 µM (inactive). For the same molecule, the GI50 [19] was > 100 µM (inactive).
For O=C1CC(Br)c2c(Br)sc(Br)c21 (stereo not drawn), the GI50 [1] was 19 µM (inactive), the GI50 [2] was 22 µM (inactive) and the GI50 [3] was 18.5 µM (inactive). For the same molecule, the GI50 [4] was 15.5 µM (inactive), the GI50 [5] was 27.7 µM (inactive) and the GI50 [6] was 12.1 µM (inactive). For the same molecule, the GI50 [7] was 16.7 µM (inactive), the GI50 [8] was 14.2 µM (inactive) and the GI50 [9] was 20 µM (inactive). For the same molecule, the GI50 [10] was 13.6 µM (inactive), the GI50 [11] was 16.9 µM and the GI50 [12] was 34.5 µM (inactive). The GI50 [13] was 22.9 µM (inactive), the GI50 [14] was 36.7 µM (inactive) and the GI50 [15] was 17.3 µM (inactive). The GI50 [16] was 18.9 µM (inactive), the GI50 [17] was 29.1 µM (inactive) and the GI50 [18] was 28.8 µM (inactive). For the same molecule, the GI50 [19] was 15.8 µM (inactive).
